Numbered stars: 1 amine (or outer) side, 2 acyl side, 3 side chain; on linkers, the order of the positions; unused ones are H or OH. Bridge positions count the residues as written; N and C are the ends. Square brackets hold non-standard residues; d marks the D form. Peptide text beside a SMILES is read from it. I, II: the chains in the order shown. Actinocin(9to1) = Cc1c2oc3c(C)ccc(C(=O)[*:1])c3nc-2c(C(=O)[*:2])c(N)c1=O; NMeV = CN[C@H](C(=O)O)C(C)C; Sar = CNCC(=O)O
What was measured:
[1] = tested on: fibroblast-like synoviocytes (FLS); test: ISEL assay of apoptosis (DNA fragmentation) in cultured fibroblast-like synoviocytes; assay type: cell-based, human; conditions: for % apoptotic cells Without IFN-gamma (100 U/ml) / % apoptotic cells With IFN-gamma: FLS incubated with mediator for 16 h, n = 3, ISEL assay; for % apoptotic cells Without IFN-gamma (100 U/ml): 'Without IFN-gamma (100 U/ml)' [sic]; for % apoptotic cells With IFN-gamma: concentrations: IL-1 1 ng/ml, TNF-alpha 100 ng/ml, act D 0.5 ug/ml, anti-fas 80 ng/ml; for DNA fragmentation in FLS (ISEL assay), in words: cultured FLS in chamber slides, agent alone; for effect of combination on FLS apoptosis, in words: in combination with other apoptosis-inducing factors
Method: Fragmented DNA was detected in cell nuclei using a modification of previously described methods (Wood et a., Neuron., 11:621-32, 1993 and Wijsman et al., J. Histochem. Cytochem. 41:7-12, 1993). Frozen section of synovial tissue (5-6 microns thick) were placed onto poly-L-lysine coated slides and air dried for at least 2 hours. The tissue sections were then fixed with EtOH/Acetic acid 3:1 for 10 min at room temperature and washed with buffer 1 (see below) for 5 min. The slides were then air dried 1 or at least 2 h. 10-15 ul of DNA polymerase mix were added to each section and incubated at room temperature for 1 h. The sections were washed with buffer 1 (see below) for 5 min at room temperature followed by a wash in buffer 2 for 5 min.
Alkaline phosphatase conjugated anti-digoxigenin antibody was diluted to 1:500 in buffer 2 and 15-20 ul was applied to each specimen. The slides were incubated at 37° C. for 2 hrs in a humidified chamber and then washed with buffer 1 for 5 min. They were then equilibrated with buffer 3 for 5 min and the color reagent (NBT+BCIP) was added to the specimens. After about 30 min the slides were washed with distilled water, counterstained with eosin or methyl green and dehydrated with graded alcohol washes. The developing reagent gave a dark purple color for positive signals. Buffers: 10× DNA polymerase buffer=0.5M Tris.Cl pH7.5, 0.1M MgCl2, 1 mM DTT; 10× nucleotide mix=1 mM each of dATP, dCTP and dGTP, 0.4 mM dTTP; DNA polymerase mix=10× DNA pol buffer (2 ul), […] nucleotide mix (2 ul); 100 uM dig-11-dUTP (0.5 ul), Klenow polymerase (2 ul (2 U)), Water (13.5 ul); Buffer 1=100 mM Tris.Cl pH7.5, 150 mM NaCl; Buffer 2=0.5% Blocking agent in buffer 1, Buffer 3=100 […]. Quantification of ISEL assay. A semiquantitative scale was used to estimate the degree of ISEL staining in tissue sections that had been counterstained with methyl green to distinguish ISEL-positive and -negative cells. Four areas were reviewed by a blinded investigator: the synovial intimal lining, the sublining, blood vessels, and lymphoid aggregates. The extent of staining in the area was estimated and scored as using a previously established semiquantitative scale.
Synovial cells were isolated by enzymatic dispersion of synovial tissues as previously described (Alvaro-Gracia, et al., supra). Briefly, the tissues were minced and incubated with 1 mg/ml collagenase in serum-free DMEM (Gibco, Grand Island, N.Y.) for 2 h at 37° C., filtered through a nylon mesh, extensively washed, and cultured in DMEM supplemented with 10% fetal calf serum (FCS) (Gibco, endotoxin content <0.006 ng/ml), penicillin, streptomycin, and L-glutamine in a humidified 5% Co2 atmosphere. After overnight culture, non-adherent cells were removed and adherent cells were cultivated in DMEM plus 10% FCS.
At confluence, cells were trypsinized, split at a 1:3 ratio, and recultured in medium. Synoviocytes were used from passages 3 through 9 in these experiments, during which time they were a homogeneous population of fibroblast-like synoviocytes (FLS)(<1% CD11b, <1% phagocytic, and <1% Fc-gamma RII receptor positive).
(§1) The presence of CD68-negative apoptotic cells in the synovial lining prompted an analysis of the regulation of FLS apoptosis in vitro. […] Osteoarthritis and rheumatoid arthritis-derived FLS were equally susceptible to induction of DNA strand breaks.

Rheumatoid arthritis FLS = test: 3HdTr nuclear fragmentation assay; assay type: cell-based, human; conditions: FIG. 8; cytokines or antibodies 8 h, act D 4 h
Method: Rheumatoid arthritis FLS were seeded at 10^4 cells/well in a 96-well microtiter plate. The cells were cultured at 37° C. and 5% CO2 for 2 days. On the third day, 10 uCi/ml/well of 3HdTR was added to each well and incubated overnight. The cells were then treated with different concentrations of cytokines or antibodies for 8 h or actinomycin D (act D) for 4 h and then lysed by 2 rounds of freeze-thaw cycles. Lysed cells and media were aspirated onto fiber glass filters using a cell harvester. The filters were washed to remove unincorporated nucleotides and counted in a liquid scintillation counter. All points were done in triplicates. Percent specific fragmentation was calculated as follows: (S-E)×100/S, where E=retained cpms on the filter in the presence of cytokine and S=retained cpms on the filter in the medium control (Matzinger, P., J. Immunological Methods 145:185-92, 1991).
as §1

p53 in RA FLS = conditions: 8-9 hr after stimulating with H2O2 for 100 min; n=3; medium alone 10.7±2.4%
Method: (§2) The intracellular location of p53 protein is an important determinant of its functional capabilities. It is known that p53 can reside in the cytoplasm (generally bound to hsc70) but is transported to the nucleus after DNA damage or proliferative signals. […] Immunohistochemistry was then performed on cultured RA FLS to determine the subcellular localization of p53.

[2] = tested on: p53 in dermal fibroblasts; conditions: after exposure to H2O2; before 5±11%
Method: as §2

Fas on FLS = test: Surface Fas expression on FLS by flow cytometry (FACS); assay type: cell-based, human; conditions: IL-1beta 1 ng/ml or TNF-alpha 100 ng/ml for 16 to 24 hours; pooled RA and OA FLS
Method: FLS (1-2×105) were cultured in 6-well plastic dishes (Costar, Cambridge, Mass.) in DMEM-10% FCS. Cells were harvested with 5 mM EDTA at 4° C. and stained with anti-fas or control antibody (Kamiya Biomedical Co., Thousand Oaks, Calif.) as previously described (Alvaro-Gracia, et al., supra). Phycoerythrin conjugated Fab2 anti-mouse IgG (Tago Inc. Burlingame, Calif.) was used as a secondary antibody. An isotype matched MAb was used as negative control. Induction of Fas expression by cytokines was calculated from the mean fluorescence channels (MFC) as follows: relative MFC=(MF(Ccytokine-MFClgG)/(MFCmedium-MFClgG). A cell was defined a positive if its MFC was greater than 98% of cells stained with the control antibody. Statistical analysis. Data were analyzed using the paired Student t test and are presented as mean+SEM.
Since anti-fas antibody induced DNA fragmentation in FLS, fas expression was determined on these cells using flow cytometry. Many FLS constitutively expressed Fas protein on the cell surface (see FIG. 9 for a representative experiment (n=7; 4 rheumatoid arthritis and 3 osteoarthritis)). There were no significant differences between osteoarthritis and rheumatoid arthritis FLS with regard to the level of surface Fas expression on resting synoviocytes. […]

mouse air pouch tissue = test: Mouse air pouch model of inflammation with TUNEL staining; assay type: in vivo; conditions: 3 ml of 1% carrageenan into pouch, two days after injection
Method: In this standard model, mice were lightly anesthetized with halothane and 3 ml of sterile filtered air was injected subcutaneously into the back, forming a pocket. This procedure was repeated twice over the next 5 days to form a mature pouch. Subsequently, 3 ml of 1% carrageenan was injected into the pouches. Carrageenan is a highly inflammatory natural substance that, when injected into body cavities, induces leukocyte recruitment, cytokine gene expression, and release of a variety of small molecule mediators. Two days after carrageenan injection, the mice were sacrificed and the pouches were removed. The excised pouches were fixed in formaldehyde and histologic sections were prepared. The sections were subsequently stained using the TUNEL technique (Wood, et al., Neuron, 11:621, 1993) to identify cells with fragmented DNA that were undergoing apoptosis.

| Molecule | % apoptotic cells Without IFN-gamma (100 U/ml) [1] [%] | % apoptotic cells With IFN-gamma [1] [%] | DNA fragmentation in FLS (ISEL assay), in words [1] | DNA fragmentation in cultured FLS (3HdTr nuclear fragmentation), in words (Rheumatoid arthritis FLS) | % of FLS with prominent nuclear p53 staining (p53 in RA FLS) [%] | % of dermal fibroblasts with nuclear p53 staining [2] [%] | surface Fas expression on FLS, in words (Fas on FLS) | effect of combination on FLS apoptosis, in words [1] | TUNEL-positive cells in air pouch tissue, in words (mouse air pouch tissue) | inflammatory infiltration of the air pouch, in words (mouse air pouch tissue) |
| --- | --- | --- | --- | --- | --- | --- | --- | --- | --- | --- |
| Cc1c2oc3c(C)ccc(C(=O)N[C@@H]4C(=O)N[C@H](C(C)C)C(=O)N5CCC[C@H]5C(=O)N(C)CC(=O)N(C)[C@@H](C(C)C)C(=O)O[C@@H]4C)c3nc-2c(C(=O)N[C@@H]2C(=O)N[C@H](C(C)C)C(=O)N3CCC[C@H]3C(=O)N(C)CC(=O)N(C)[C@@H](C(C)C)C(=O)O[C@@H]2C)c(N)c1=O [actinomycin D, reference compound] (I: T[dV]P[Sar][NMeV] / II: T[dV]P[Sar][NMeV]; ester I:1-I:C, II:1-II:C; linker I:N-II:N via Actinocin(9to1)) | 6 ± 3 | 37 ± 5 | caused significant DNA fragmentation | caused DNA fragmentation |  |  |  |  |  |  |
| OO [hydrogen peroxide] |  |  |  |  | 70.7±12.8 | 75±17 |  |  |  |  |
| IL-1: Recombinant hIL-1 beta, cytokine purchased from Genzyme | 0 ± 2 | 50 ± 2 | caused significant DNA fragmentation | caused DNA fragmentation |  |  | slight increase, the difference did not reach statistical significance |  |  |  |
| TNF-alpha | 3 ± 2 | 35 ± 1 | caused significant DNA fragmentation | caused DNA fragmentation |  |  | significantly increased surface Fas expression | additive with actinomycin D |  |  |
| carrageenan |  |  |  |  |  |  |  |  | large foci of TUNEL-positive cells were present | an inflammatory exudate was present |
| IFN-gamma: recombinant human IFN-gamma, cytokine purchased from Genzyme (protein, UniProt P01579 24-161, looked up) Interferon gamma: QDPYVKEAENLKKYFNAGHSDVADNGTLFLGILKNWKEESDRKIMQSQIVSFYFKLFKNFKDDQSIQKSVETIKEDMNVKFFNSNKKKRDDFEKLTNYSVTDLNVQRKAIHELIQVMAELSPAAKTGKRKRSQMLFRG | 6 ± 2 |  | minimal effect |  |  |  |  | significantly reduced FLS apoptosis |  |  |

— US6747013B2, “Therapy for cellular accumulation in chronic inflammatory diseases” (The Regents of the University of California, priority 1995, dated 2004)
